Assay results as given in patent publication US8987211B2, “Therapeutic peptides and use thereof against huntington's disease” (Centre National de la Recherche Scientifique (CNRS), priority 2011, dated 2015).
Entries after “also recorded” stand apart in the source; their conditions may differ. No end group written: not given here.

How the values were obtained:
[1] = system: GFP-hHtt171aa-136Q aggregates; experiment: Quantification of aggregates by filtration, HeLa cells; format: cell-based, human; conditions: cellulose acetate membrane, anti-GFP, FIG. 5B
Method: Protein extracts were obtained according to (Sittler et al., Mol Cell. 1998) with the following modifications: after transfection, the cell pellets are treated with DNase and resuspended in 150 μl 1% SDS and 50 mM DTT in PBS. The samples are boiled for 5 minutes. Two 150 μL aliquots corresponding to independent experiments were filtered together and each point was reproduced 3 times.
The samples were filtered on a cellulose acetate membrane ([…], Schleicher and Schuell) using a Biorad Dot-blot apparatus. The membranes were then subjected to immunodetection with an antibody, either anti-GFP polyclonal for the HeLa cells (Invitrogen, 1:5000) or anti-HA polyclonal for the salivary glands (SC805, Santa-Cruz, 1:200) in order to visualise the aggregates The aggregates are then detected using a secondary anti-rabbit antibody coupled with HRP (horseradish peroxidase, Jackson 1:50 000). The immunoreagent spots are detected with an […] substrate (ECL, Roche) and the quantifications carried out using Image J (see FIG. 5B).

polyQ-hHtt = experiment: Viability and survival of adult flies affected by polyQ-hHtt; format: in vivo, Drosophila; conditions: summary statement, no example
[2] = system: GFP-hHtt171aa-136Q (GFP-polyQ-hHtt protein); experiment: Cotransfection in HeLa cells, polyQ-hHtt aggregation visualised by anti-GFP immunodetection; format: cell-based, human; conditions: cotransfection of equivalent quantities of vectors, Myc- or Cherry-tagged peptide
Method: Various peptides contained in the 548aa of the human Huntingtin N-terminal fragment have been cloned by Gateway in expression vectors in pcDNA type cultured HeLa cells. Each peptide was tagged either by Myc or by Cherry at its N-terminal end. These various peptides were tested by cotransfection in HeLa cells in the presence of a pcDNA vector expressing a GFP-polyQ-hHtt protein (see FIG. 5). In these experiments, the polyQ-hHtt protein tested corresponded to an hHtt protein covering 171 aa and containing an extended polyQ with a GFP tag at its N-ter end (GFP-hHtt^171aa-136Q). The HeLa cells were cultured in 6-well boxes and transfected by 1.5 μg of total DNA, using JetPei (Qbiogene) reagent. Equivalent quantities of expression vectors (polyQ protein and peptides) are used for the cotransfections. When necessary, pBluescript is used to balance the quantity of DNA. Aggregation of GFP-hHtt^171aa-136Q is visualised by immunodetection with an anti-GFP antibody (see FIG. 5). This protein forms cytoplasmic aggregates (see FIG. 5A).

GFP-hHtt171aa-136Q = experiment: Co-immunoprecipitation in cotransfected HeLa cells; format: binding, human; conditions: Cherry-pep42, anti-GFP immunoprecipitation, anti-cherry western blot
Method: (§1) This assumption was tested by co-immunoprecipitation experiments using HeLa cells cotransfected by GFP-hHtt^171aa-136Q or by GFP-P1 (corresponding to the first 98 aa with no polyQ domain), in the presence of Cherry-pep42. A G/A-agarose protein resin binding an anti-GFP was used to immunoprecipitate the GFP-hHtt^171aa-136Q protein or the GFP-P1 peptide and to co-immunoprecipitate the Cherry-pep42, visualised by an anti-cherry by western blot.

[3] = system: GFP-P1 (first 98 aa with no polyQ domain); experiment: Co-immunoprecipitation in cotransfected HeLa cells; format: binding, human; conditions: Cherry-pep42, GFP-P1, anti-GFP immunoprecipitation
Method: as §1

[4] = system: polyQ-hHtt protein, N17 region (the first 17 aa); experiment: Interference with nucleation step of polyQ-hHtt aggregation; parameters: species or system human; conditions: summary statement, no example
[5] = system: UAS-hHtt67aa-98Q or UAS-hHtt548aa-128Q; experiment: Eye depigmentation and degeneration in flies expressing polyQ-hHtt (gmr-Gal4); format: in vivo, Drosophila; conditions: 10-day old females, 29° C., polyQ-hHtt (67aa or 548aa)
Method: (§2) The eye depigmentation and degeneration phenotypes are analysed in 10-day old females expressing either UAS-hHtt^67aa-98Q or UAS-hHtt^548aa-128Q controlled by the gmr-Gal4 driver, after transfer at 29° C. from the embryogenesis stage (see FIG. 6b, to be compared with the wild flies shown on FIG. 6a). Flies expressing other genes involved in polyQ diseases (UAS-SCA1-polyQ or UAS-SCA3-polyQ) were also analysed (FIG. 6d).

[6] = molecular target: T1, first 17 amino acids before the polyQ domain of the human Htt protein (Homo sapiens, UniProt P42858); experiment: Co-immunoprecipitation with first 17 amino acids of Htt; format: binding
T1 construct: using the first 17 amino acids before the polyQ domain of the human Htt protein; expressed in transfected cells; host or cells: HeLa cells (inferred from 'the same experiments')
Method: as §1

[7] = system: OK6-Gal4; UAS-NPY-GFP; UAS-hHtt548aa-128Q larvae; experiment: Larval locomotion; format: in vivo, Drosophila; conditions: larvae expressing hHtt548aa-128Q
[8] = system: HA-hHtt171aa-136Q protein; experiment: polyQ-hHtt aggregation in Drosophila salivary glands (MS1096-Gal4 driver, immunolabelling); format: in vivo; conditions: third instar larvae, anti-HA immunolabel
Source text: The pep4 and pep42 peptides identified as inhibitors of polyQ-hHtt aggregation in HeLa cells were cloned using the Gateway technique in Drosophila pUASt expression vectors, allowing the expression of N-terminal 6Myc- or GFP-tagged peptides.
Transgenic flies expressing these peptides were constructed by injecting vectors in Drosophila embryos. The UAS/Gal4 system (Brand and Perrimon, Development 1993) was used to express these peptides at specific times and in specific tissues, in the presence of an HA- (hemagglutinin) tagged UAS-polyQ-hHtt vector.
The MS1096-Gal4 driver was used to express the HA-hHtt^171aa-136Q protein (detected by an anti-HA antibody) in the salivary glands, in the absence or presence of the GFP-pep42 peptide. […] Salivary glands from dissected third instar larvae were immunolabelled. The glands are fixed for 20 minutes in PBS with 3.7% paraformaldehyde (PFA) and 0.1% Triton then washed in PBS/0.1% Triton. The glands were incubated with the antibodies (anti-HA, then Cy3 conjugate antibody) with 1% BSA.

[9] = system: UAS-SCA1-polyQ or UAS-SCA3-polyQ; experiment: Eye degeneration in flies expressing other polyQ disease genes; format: in vivo, Drosophila
Method: as §2

hHtt548aa-128Q protein [10] = experiment: Axonal transport, fixed larvae (OK6-Gal4; UAS-NPY-GFP); format: in vivo, Drosophila
Method: (§3) To test the effect of polyQ-hHtt on axonal transport, the fate of vesicles expressing Neuropeptide Y (NPY) labelled with GFP (NPY-GFP) was monitored, either after dissection and fixation of the larvae, or by real-time microscopy in order to monitor vesicular transport in the motor neurons.
The nervous system of OK6-Gal4 larvae which express vesicles containing NPY-GFP (OK6-Gal4; UAS-NPY-GFP) was dissected and fixed as previously in 3.7% PFA. Incubations with the antibodies and washing are carried out in PBS, 0.3% Triton. Expression of normal Htt^548aa-0Q has no effect on the vesicles which remain numerous and evenly distributed along the axon. Normal Htt, detected by an anti-Htt HU-4C8 antibody (Chemicon, 1:750), lies along the axon and cannot be detected at the neuromuscular junctions (NMJs). Expression of the hHtt^548aa-128Q protein leads to the formation of aggregates along the axons and to abnormal accumulation of the protein at the NMJs. We observe a decrease in the total number of vesicles and their accumulation, especially at the aggregates. In all cases, the vesicles reach the NMJs.

hHtt548aa-128Q protein [11] = experiment: Axonal vesicular transport by real-time microscopy in larva motor neurons; format: in vivo, Drosophila; conditions: segments A3 to A4
Method: as §3
For this examination, OK6-Gal4; UAS-NPY-GFP larvae were anaesthetised with ether for 2 minutes and positioned with the ventral side upwards between slide and slip cover in polymerised 1% agarose, for direct visualisation using fluorescence microscopy with a 63× objective, to monitor the movement of the vesicles between segments A3 and A4. A film of 100 photographs is taken every 280 ms. For each film, 20 vesicles were analysed with Image J (manual vesicle tracking plugin developed by F. Cordelières, Institut Curie, Orsay, France). Vesicles with an instantaneous speed of less than 0.01 μm/s are defined as having paused. The mean speed is calculated as being the total distance traveled irrespective of the vesicle direction (anterograde or retrograde) divided by the total estimated time during which the vesicle is monitored. While expression of the hHtt^548aa-128Q protein leads to an increase in the pause time of vesicles and reduces their speed, the presence of pep42 rescues both the vesicle pause time and speed.

GFP-polyQ-hHtt (Q136) = experiment: Activity in HeLa cells, aggregate percentage by GFP signal; format: cell-based, human; conditions: increasing quantity of synthetic peptide added to the culture medium, FIG. 7c
Source text: HeLa cells are transfected with: • 1—GFP-polyQ-hHtt (Q136), • 2—GFP-polyQ-hHtt co-transfected with a vector expressing Pep42-TAT, or • 3—GFP-polyQ-hHtt in the presence of an increasing quantity of Pep42-TAT synthetic peptide added to the culture medium.
FIG. 7c corresponds to the aggregate percentage identified by the GFP signal related to the polyQ-hHtt chain, in the presence of an increasing quantity of fusion peptide.

Chain of GFP-hHtt171aa-136Q (GFP-polyQ-hHtt protein) (P42858 with tags, fused parts or gaps limits assumed): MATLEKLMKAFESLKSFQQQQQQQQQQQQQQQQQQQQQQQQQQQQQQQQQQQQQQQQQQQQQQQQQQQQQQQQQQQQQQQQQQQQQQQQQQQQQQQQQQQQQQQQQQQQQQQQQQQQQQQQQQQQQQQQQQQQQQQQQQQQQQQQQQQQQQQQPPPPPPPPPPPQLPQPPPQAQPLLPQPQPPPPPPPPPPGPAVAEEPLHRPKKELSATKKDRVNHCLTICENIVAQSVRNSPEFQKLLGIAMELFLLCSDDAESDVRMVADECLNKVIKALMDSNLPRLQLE
Chain of hHtt548aa-128Q protein (P42858 with tags, fused parts or gaps limits assumed): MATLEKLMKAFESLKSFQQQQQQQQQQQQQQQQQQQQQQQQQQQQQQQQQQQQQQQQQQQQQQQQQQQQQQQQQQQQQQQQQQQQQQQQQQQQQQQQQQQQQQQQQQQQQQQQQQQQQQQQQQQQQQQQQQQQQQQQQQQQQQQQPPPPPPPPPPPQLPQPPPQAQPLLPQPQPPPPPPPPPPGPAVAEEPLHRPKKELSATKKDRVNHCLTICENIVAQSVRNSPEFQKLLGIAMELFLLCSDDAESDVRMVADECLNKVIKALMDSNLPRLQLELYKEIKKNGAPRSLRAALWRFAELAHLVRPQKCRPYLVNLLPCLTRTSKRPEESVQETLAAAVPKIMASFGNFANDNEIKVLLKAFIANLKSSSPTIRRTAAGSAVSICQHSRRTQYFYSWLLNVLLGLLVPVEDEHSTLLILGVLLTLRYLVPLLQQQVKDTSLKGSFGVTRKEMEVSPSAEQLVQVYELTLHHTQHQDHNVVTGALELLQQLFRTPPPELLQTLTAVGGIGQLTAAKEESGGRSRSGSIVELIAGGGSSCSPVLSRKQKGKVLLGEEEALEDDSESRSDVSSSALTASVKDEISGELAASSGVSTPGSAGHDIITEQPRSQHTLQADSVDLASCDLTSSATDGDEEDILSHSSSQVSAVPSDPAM
Chain of GFP-hHtt171aa-136Q aggregates (P42858 with tags, fused parts or gaps limits assumed): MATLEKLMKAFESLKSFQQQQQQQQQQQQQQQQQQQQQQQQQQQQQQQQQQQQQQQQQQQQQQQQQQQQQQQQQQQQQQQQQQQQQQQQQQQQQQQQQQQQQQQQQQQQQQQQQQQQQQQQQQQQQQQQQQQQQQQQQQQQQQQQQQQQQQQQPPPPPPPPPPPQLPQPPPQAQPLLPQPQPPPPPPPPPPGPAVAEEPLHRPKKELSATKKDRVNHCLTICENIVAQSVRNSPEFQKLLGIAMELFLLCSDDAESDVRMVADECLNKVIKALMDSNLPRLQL
Chain of GFP-P1 (first 98 aa with no polyQ domain) (P42858 with tags, fused parts or gaps DEL18-38 limits assumed): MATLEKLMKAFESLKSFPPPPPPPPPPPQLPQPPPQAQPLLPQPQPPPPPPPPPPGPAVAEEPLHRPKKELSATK

AASSGVSTPGSAGHDIITEQPRS (not fully specified) [pep42, 23 aa peptide contained in pep4, positions 480 to 502 of wild-type hHtt; tested Myc-, Cherry- or GFP-tagged]
quantification of aggregates by filtration [1]: confirmed by quantification
viability and survival of adult flies (polyQ-hHtt): capable of rescuing
aggregation of GFP-hHtt171aa-136Q (polyQ-hHtt) in HeLa cells [2]: no longer forms aggregates
interaction with Huntingtin N-terminal fragment (co-immunoprecipitation) (GFP-hHtt171aa-136Q): interacts directly with the N-terminal fragment of Huntingtin
interaction with N-terminal fragment lacking polyQ (co-immunoprecipitation) [3]: this interaction does not require the presence of the polyQ domain
first step of aggregation (nucleation) [4]: interferes with the first step of aggregation
eye depigmentation and degeneration phenotype [5]: normal eyes
interaction with first 17 amino acids of Htt (co-immunoprecipitation) [6]: successfully repeated
mobility of the larvae [7]: completely rescued
aggregation of polyQ-hHtt in salivary glands [8]: absence of aggregates
eye degeneration phenotype, other polyQ genes [9]: Only flies expressing polyQ-hHtt (67aa or 548aa) have normal eyes
accumulation of polyQ-hHtt at the neuromuscular junctions (NMJs) (hHtt548aa-128Q protein [10]): non-accumulation of polyQ-hHtt at the NMJs
distribution of NPY-GFP vesicles along the axons (hHtt548aa-128Q protein [10]): better distribution of the vesicles along the axons
size of the polyQ-hHtt aggregates along axons (hHtt548aa-128Q protein [10]): reduction in the size of the polyQ-hHtt aggregates
vesicle mean speed (hHtt548aa-128Q protein [11]): rescues
vesicle pause time (hHtt548aa-128Q protein [11]): rescues

AASSGVSTPGSAGHDIITEQPRSGGYGRKKRRQRRR (Pep42-TAT) [fusion peptide of Pep42 and TAT with 2 glycines inserted between]
aggregate percentage identified by the GFP signal (GFP-polyQ-hHtt (Q136)): decreases significantly; also recorded: protective activity of the fusion peptide is conserved

B1: QQLFRTPPPELLQTLTAVGGIGQLTAAKEESGGRSRSGSIVELIAGGG SSCSPVLSRKQKGKVLLGEEEALEDDSESRSDVSSSALTASVKDEISGELAAS SGVSTPGSAGHDIITEQPRSQHTLQADSVDLASCDLTSSATDGDEEDILSHSSS QVSAVPSDPAM (protein)
chain: QQLFRTPPPELLQTLTAVGGIGQLTAAKEESGGRSRSGSIVELIAGGGSSCSPVLSRKQKGKVLLGEEEALEDDSESRSDVSSSALTASVKDEISGELAASSGVSTPGSAGHDIITEQPRSQHTLQADSVDLASCDLTSSATDGDEEDILSHSSSQVSAVPSDPAM
modifications: Pep4
quantification of aggregates by filtration [1]: confirmed by quantification
aggregation of GFP-hHtt171aa-136Q (polyQ-hHtt) in HeLa cells [2]: proved to be active; also recorded: inhibiting effect of polyQ-hHtt aggregation
aggregation of polyQ-hHtt in salivary glands [8]: absence of aggregates
